Test [1] deals with T1, A. nidulans bimC motor domain (Emericella nidulans, UniProt P17120).
T1 construct: ATPase (bimC kinesin motor domain); made in house; host or cells: bacteria
T1 sequence (P17120 81-416 limits assumed): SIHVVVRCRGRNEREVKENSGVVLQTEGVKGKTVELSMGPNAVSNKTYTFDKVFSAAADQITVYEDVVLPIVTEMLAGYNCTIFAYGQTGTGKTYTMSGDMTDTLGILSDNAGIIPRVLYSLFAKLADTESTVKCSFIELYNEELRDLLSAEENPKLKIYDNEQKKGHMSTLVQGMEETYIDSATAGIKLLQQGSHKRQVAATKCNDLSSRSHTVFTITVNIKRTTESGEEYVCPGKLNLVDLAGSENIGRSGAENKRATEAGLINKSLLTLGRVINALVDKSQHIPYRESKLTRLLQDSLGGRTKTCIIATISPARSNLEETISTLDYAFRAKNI
The experiment in a line: ATPase assay of bimC motor domain (ATP hydrolysis, ADP or phosphate readout). The class given is biochemical, Aspergillus nidulans. The conditions noted are these: bimC kinesin motor domain; motor domain fragment cloned and expressed in bacteria; FIG. 14. The text has this: FIG. 12 depicts the cloning and expression of A. nidulans bimC motor domain. In Panel A, an overview of the express is shown. The fragment containing the bimC motor domain is indicated by a filled semi-circle. In B, a Coomassie stained gel of the purification of bimC motor domain is shown.
Aspergillus nidulans bimC is a kinesin related protein (KRP) whose gene product encodes an essential mitotic KRP. BimC is the founding member of the bimC subfamily of mitotic kinesins (Morris NR, Enos AP. (1992) Trends Genet 8:1 32-7). Mutants in bimC are blocked in mitosis and arrest with duplicated but unseparated spindle poles. (Enos AP, Morris NR. (1990) Cell 60:6 1019-27). Following the discovery that bimC encodes a KRP, several bimC family members have been identified in diverse organisms ranging from yeast to humans. See. FIG. 1. […]
In a particularly preferred embodiment, a fragment of the bimC protein comprising its hydrolytically active “motor” domain is used. This motor domain has been cloned and expressed in bacteria such that large quantities of biochemically active, substantially pure protein are available (FIG. 12). […]
In a preferred embodiment, activity is measured by the methods disclosed in Serial No. 09/314,464, filed May 18, 1999, which is incorporated herein by reference in its entirety. […] The presence of ADP or inorganic phosphate release is used as the readout for protein activity. […]

A further test deals with mammalian tubulin. The conditions noted are these: cited from earlier work.
Another test deals with fungal tubulin. As to conditions: cited from earlier work.

Regarding `O=C1OC(c2ccco2)=N/C1=C\c1ccc(Br)s1` [D00018 row 1], the half-inhibitory concentration (IC50) (in general, the point on the concentration scale where inhibition reaches its midpoint) in test [1] is 25 µM.
For the compound `CCCCNC(=O)n1c(NC(=O)OC)nc2ccccc21` [benomyl], the “effect on mammalian tubulin” value in the test with mammalian tubulin was “no effect”. Also, in the test on fungal tubulin, the “inhibition of fungal tubulin” value is on record as “potent inhibitor”.

Values taken from patent US6627408B1, “Antifungal assay” (Cytokinetics, Inc., priority 2000, dated 2003).
